We go through seven molecules from patent publication US20220110924A1, “METHODS AND COMPOSITIONS FOR GENETIC MODULATION OF TUMOR MICROENVIRONMENTS” (HUYABIO International, LLC, priority 2020, published 2022).

One series has as its system RR/PTCL. The conditions noted are these: RR/PTCL historical benchmark, cited from earlier work.
In series [1] the test system is MC38 tumors. Put plainly: NanoString nCounter PanCancer Immune Profiling Panel gene expression. It is filed as in vivo, C57BL/6 mice. Here is the method:
Gene expression studies were carried out using excised MC38 tumors (n=20 animals/treatment) isolated from syngeneic C57BL/6 mice treated for 7, 14, or 17 days with HBI-8000 (50 mg/kg, daily), anti-PD-1 (10 mg/kg, biweekly), or the combination of HBI-8000+anti-PD-1 (50 mg/kg, daily, 10 mg/kg, biweekly). At study termination, tumor samples from the treated mice were collected and fixed in formalin for 24 h and transferred to EtOH, followed by the preparation of formalin-fixed paraffin embedded blocks. Tumor sections (5-10 μm) were prepared from the formalin-fixed paraffin-embedded blocks, and total RNA was isolated from tissue scraped from 4 to 6 slides using the protocol recommended by NanoString Technologies (Seattle, Wash.). The nCounter PanCancer Immune Profiling panel developed and provided by NanoString Technologies was initially selected for expression analyses with an additional 20 genes added as a Panel Plus Codeset. The additional genes were predicted to be regulated by HBI-8000+/−ICI treatment. The nCounter assays were performed according to the manufacturer's instructions using the nCounter FLEX system.
Gene expression data were analyzed using nSolver software provided by NanoString Technologies, Inc. Raw data were normalized to the geometric mean values of the internal synthetic positive controls and geometric means of the housekeeping genes, as recommended by the manufacturer. The NanoString Technologies' nSolver Analysis Software 4.0 generated cell type scores, pathway scores, heatmaps, and individual gene normalized data from the nCounter PanCancer Immune Profiling Panel Plus dataset. The cell type score quantifies cell populations using marker genes for given cell types; by centering the mean at 0 for each cell type, immune cell type abundance can be compared on the same scale. The same method was used to generate immune-relevant pathway scores; summarizing the data from multiple genes in a pathway into a single score allowed for comparison between treatments for pathway analysis.
Normalized gene expression data for individual genes was exported from nSolver, annotated with percent of tumor growth inhibition (% TGI), and then imported into GraphPad Prism 7.04.
To investigate the mechanism of action of HBI-8000 in combination therapy with ICIs, larger groups of mice (n=20/group) were implanted with MC38 tumors to sufficiently power the statistical analysis. A baseline no-treatment tumor-bearing group was killed 1 day before initiating treatment. Mice in each treatment arm (n=20) were killed at days 7, 14, and 17 post treatment initiation. The NanoString nCounter PanCancer Immune Profiling Panel analysis allows for clustering of immune response-related genes into “gene sets” comprising a collection of genes selected as being representative of an element of the immune response (i.e., cell type, pathway), and provides a high level view of the antitumor response, which is depicted as scatterplots in FIG. 9A. While all the scores were elevated in the PD-1 Ab plus HBI-8000 combination agent cohorts, it is noteworthy that a subset of cell type scores was augmented by either PD-1 Ab or HBI-8000 alone as early as day 7.

The test system of series [2] is MC38 tumors. Put plainly: model of PD-1 antibody failure or stable disease, second-line therapy. The conditions noted are these: second-line therapy in mice failing PD-1 Ab therapy, n=10/group, end of study. It is filed as in vivo. How it is done: To establish a model of PD-1 antibody failure or stable disease, 150 mice were initially treated biweekly for 3 weeks with first-line anti-PD-1 Ab (5 mg/kg, intraperitoneal administration).
Human cancer patients receiving ICI therapy often experience a transient response or stable disease, but eventually develop resistance and progress, a challenge to which major efforts are directed. […] To explore the effect of HBI-8000 plus ICI on acquired resistance, we developed a model based on the repeated observations that tumor-bearing mice treated initially (first-line) with single agent PD-1 Ab or PD-L1 Ab display […] patterns of growth: approximately 20% experience rapid progression, approximately 20% experience complete regression, and approximately 60% experience stable tumor growth (defined as 3 consecutive tumor volume measurements with no significant change) or slow progression (relative to rapid growth and progression), which somewhat approximates the clinical situation. Using the above model, we treated a large cohort of tumor-bearing mice with PD-1 Ab alone. Once they reached the criteria for stable disease or slow progression, they were randomized into 6 treatment arms as indicated in FIG. 13. We compared the effect of halting treatment (Vehicle), continuing to treat with PD-1 Ab, or continuing PD-1 Ab in combination with HBI-8000. […]

Series [3] can be described thus: tolerability, treatment related adverse events (Example 4). It is filed as in vivo, human. How it is done: The tolerability of the compounds of formula I, nivolumab, and a combination of the compounds of formula I and nivolumab were tested. The Phase 2 clinical dosage of 30 mg BIW of the compounds of formula I was administered.
For another series, the system named is RR/ATL. The note with it: cited from earlier work; for ORR: RR/ATL historical benchmark.

Regarding `O=c1[nH]cnc2c([C@@H]3N[C@H](CO)[C@@H](O)[C@H]3O)c[nH]c12` [Forodesine], the ORR in the series on RR/PTCL was 22%.

Take `Nc1cc(F)ccc1NC(=O)c1ccc(CNC(=O)/C=C/c2cccnc2)cc1` [HBI-8000, N-(2-amino-4-fluorophenyl)-4-[[[(2E)-1-oxo-3-(3-pyridinyl)-2-propen-1-yl]amino]methyl]benzamide]: the “cell type scores corresponding to dendritic cells, macrophages, NK cells, cytotoxic cells, and CD45 cells” value in the series on MC38 tumors [1] (as early as day 7) is on record as “augmented”. In the series on MC38 tumors [1] (day 17, vs. Control), the “directed global significance score, Adaptive” value is reported as 2; the “directed global significance score, Adhesion” value is given as 2; the “directed global significance score, Antigen processing” value worked out at 1.8; the “directed global significance score, Apoptosis” value is given as 1.8. For the same molecule, in the series with MC38 tumors [1] (day 17, vs. Control), the “directed global significance score, B cell Functions” value came to 1.5; the “directed global significance score, Basic Cell Function” value is on record as 1.5; the “directed global significance score, CD molecules” value worked out at 1.7; the “directed global significance score, Cancer progression” value worked out at 1.8. Moreover, in the series with MC38 tumors [1] (day 17, vs. Control), the “directed global significance score, Cell cycle” value is listed as 1.5; the “directed global significance score, Chemokine and Receptors” value amounted to 1.5; the “directed global significance score, Class I MHC mediated antigen process” value is on record as 1.5; the “directed global significance score, Complement pathway” value is given as 0. In addition, in the series on MC38 tumors [1] (day 17, vs. Control), the “directed global significance score, Costimulation by the CD28 family” value was found to be 1; the “directed global significance score, Cytokines and Receptors” value worked out at 1.8; the “directed global significance score, Dendritic cell Functions” value came out at 1.8; the “directed global significance score, Humoral” value is 1.8. In the series on MC38 tumors [1] (day 17, vs. Control), the “directed global significance score, Inflammation” value worked out at 1.8; the “directed global significance score, Innate” value is recorded as 1.8; the “directed global significance score, Interferon” value worked out at 1.5; the “directed global significance score, Interleukin” value amounted to 1.5. In addition, in the series with MC38 tumors [1] (day 17, vs. Control), the “directed global significance score, Leukocyte Function” value stood at 1.8; the “directed global significance score, MHC” value turned out to be 1.8; the “directed global significance score, MHC class II antigen presentation” value worked out at 1.8; the “directed global significance score, Macrophage function” value came out at 1.8. Also, in the series on MC38 tumors [1] (day 17, vs. Control), the “directed global significance score, Microglial Functions” value was found to be 3; the “directed global significance score, NK cell Function” value is on record as 1.5; the “directed global significance score, Pathogen Receptors” value was 1.3; the “directed global significance score, Senescence” value is given as 1.3. For the same molecule, in the series with MC38 tumors [1] (day 17, vs. Control), the “directed global significance score, T-cell Functions” value came to 1.5; the “directed global significance score, TLR” value came to 1.5; the “directed global significance score, TNF superfamily” value was determined as 1.5; the “directed global significance score, Transporter Function” value is on record as 1.8. Moreover, in the series on MC38 tumors [2], the “complete response (tumor regression)” value was determined as 2 mice and the partial response was found to be 3 mice. For the same molecule, the “share of TRAEs associated with the agent” value in series [3] (63 subjects with AE data) amounted to 39%. Also, in series [3] (G1-2), the “Anemia, TRAE” value is 14 (22) n (% of N); the “Diarrhea, TRAE” value is 0 n (% of N); the “Fatigue, TRAE” value was 0 n (% of N); the “Hypophospatemia, TRAE” value is given as 6 (10) n (% of N). Moreover, in series [3] (G1-2), the “Lymphocyte decrease, TRAE” value was 0 n (% of N); the “Neutrophil decrease, TRAE” value is 8 (13) n (% of N); the “Platelet decrease, TRAE” value is 23 (37) n (% of N); the “WBC decrease, TRAE” value is 11 (17) n (% of N). In series [3] (G3), the “Anemia, TRAE” value was 1 (2) n (% of N); the “Diarrhea, TRAE” value was 0 n (% of N); the “Fatigue, TRAE” value is 0 n (% of N); the “Hypophospatemia, TRAE” value is listed as 4 (6) n (% of N). Also, in series [3] (G3), the “Lymphocyte decrease, TRAE” value is 0 n (% of N); the “Neutrophil decrease, TRAE” value is listed as 5 (8) n (% of N); the “Platelet decrease, TRAE” value was 3 (5) n (% of N); the “WBC decrease, TRAE” value is listed as 1 (2) n (% of N). Moreover, in series [3] (G4), the “Anemia, TRAE” value is listed as 0 n (% of N); the “Diarrhea, TRAE” value is reported as 0 n (% of N); the “Fatigue, TRAE” value is on record as 0 n (% of N); the “Hypophospatemia, TRAE” value is 0 n (% of N). Besides, in series [3] (G4), the “Lymphocyte decrease, TRAE” value is listed as 0 n (% of N); the “Neutrophil decrease, TRAE” value is 1 (2) n (% of N); the “Platelet decrease, TRAE” value was 0 n (% of N); the “WBC decrease, TRAE” value was 0 n (% of N).

Take “NIVO: fully human monoclonal antibody directed against PD-1”: in series [3] (G1-2), the “Anemia, TRAE” value is on record as 0 n (% of N); the “Diarrhea, TRAE” value is reported as 4 (6) n (% of N); the “Fatigue, TRAE” value was 0 n (% of N); the “Hypophospatemia, TRAE” value is 0 n (% of N). For the same molecule, in series [3] (G1-2), the “Lymphocyte decrease, TRAE” value was 0 n (% of N); the “Neutrophil decrease, TRAE” value is listed as 0 n (% of N); the “Platelet decrease, TRAE” value is recorded as 0 n (% of N); the “WBC decrease, TRAE” value is given as 0 n (% of N). In addition, in series [3] (G3), the “Anemia, TRAE” value is 0 n (% of N); the “Diarrhea, TRAE” value is on record as 1 (2) n (% of N); the “Fatigue, TRAE” value is 0 n (% of N); the “Hypophospatemia, TRAE” value is on record as 0 n (% of N). In series [3] (G3), the “Lymphocyte decrease, TRAE” value is listed as 0 n (% of N); the “Neutrophil decrease, TRAE” value is 0 n (% of N); the “Platelet decrease, TRAE” value is 0 n (% of N); the “WBC decrease, TRAE” value is reported as 0 n (% of N). In series [3] (G4), the “Anemia, TRAE” value was 0 n (% of N); the “Diarrhea, TRAE” value was 0 n (% of N); the “Fatigue, TRAE” value is on record as 0 n (% of N); the “Hypophospatemia, TRAE” value was 0 n (% of N). Moreover, in series [3] (G4), the “Lymphocyte decrease, TRAE” value is reported as 0 n (% of N); the “Neutrophil decrease, TRAE” value is 0 n (% of N); the “Platelet decrease, TRAE” value was 0 n (% of N); the “WBC decrease, TRAE” value is given as 0 n (% of N). Besides, in series [3] (less frequent TRAEs), the “TSH increase, TRAE” value worked out at 5 n; the “amylase increase, TRAE” value was found to be 4 n; the “lipase increase, TRAE” value is listed as 6 n; the “rash, TRAE” value amounted to 10 n.

As for `Nc1cccc2c1CN(C1CCC(=O)NC1=O)C2=O` (centres unmarked) [Lenalidomide], the ORR in the series with RR/ATL is recorded as 42%. Moreover, the “ORR in moga patients” value in the series on RR/ATL (RR/ATL patients who had received mogamulizumab) is recorded as 18%.

For `C#CCC(Cc1cnc2nc(N)nc(N)c2n1)c1ccc(C(=O)N[C@@H](CCC(=O)O)C(=O)O)cc1` (some centres unmarked) [Pralatrexate], the ORR in the series on RR/PTCL is 45%.

With `Nc1cc(F)ccc1NC(=O)c1ccc(CNC(=O)/C=C/c2cccnc2)cc1` [Epidaza (China)], the “ORR (PMS)” value in the series on RR/PTCL (value in brackets (PMS)) was 35%. Also, in the series with RR/PTCL, the ORR is recorded as 28%.

B1: Mogamulizumab: RR/ATL treatment listed as historical benchmark (antibody, chains of the INN, looked up, V domains shown)
VH: EVQLVESGGDLVQPGRSLRLSCAASGFIFSNYGMSWVRQAPGKGLEWVATISSASTYSYYPDSVKGRFTISRDNAKNSLYLQMNSLRVEDTALYYCGRHSDGNFAFGYWGQGTLVTVSS
VL: DVLMTQSPLSLPVTPGEPASISCRSSRNIVHINGDTYLEWYLQKPGQSPQLLIYKVSNRFSGVPDRFSGSGSGTDFTLKISRVEAEDVGVYYCFQGSLLPWTFGQGTKVEIK
For B1, the ORR with RR/ATL is given as 50%.
